From article PMC10814857, “Functional Classification and Interaction Selectivity Landscape of the Human SH3 Domain Superfamily” (Cells, 2024)
pKd: −log10 of the molar value. Values joined by “and” are separate entries in the source; they are usually repeats but may differ in a detail not shown here. Equal values may be shown once. Peptide text beside a SMILES is read from it.

How the values were obtained:
Assay in all cases: Fluorescence polarization SH3 domain-PRP binding
Conditions in all cases: FP, 0.2 µM fluorescein-labeled peptide, SH3 domain 0-200 µM, Tris/HCl pH 7.5, 25 °C, quadratic fit
[1] = biological target: T1, ABI1 SH3 domain (aa 446-505) (Homo sapiens, UniProt Q8IZP0)
T1 construct: 446-505; GST (N); made in house; host or cells: Escherichia coli CodonPlus, Rosetta, BL21(DE3)
T1 sequence (Q8IZP0 446-505): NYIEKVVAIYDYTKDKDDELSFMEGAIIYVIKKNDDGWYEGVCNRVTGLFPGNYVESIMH
Experimental: (§1) The interaction between fluorescein-labeled proline-rich peptides (0.2 µM) and increasing concentrations of SH3 domains (ranging from 0 to 200 µM) was measured in a buffer (containing 30 mM Tris/HCl (pH 7.5), 5 mM MgCl2, and 3 mM DTT at 25 °C) in a total volume of 200 µL using a Fluoromax 4 fluorimeter in polarization mode and a quartz glass fluorescence cuvette (Hellma Ultra-Micro Cuvette 105.250-QS, Thermo Fisher Scientific, Waltham, MA USA). Excitation was performed at 470 nm and emission was measured at 560 nm. Dissociation constants (Kd) were determined by fitting the concentration-dependent binding curve to a quadratic ligand binding equation.
(§2) Fluorescence polarization measurements were performed to determine the binding affinities of SH3 domain–PRP interaction pairs from the dot blot analysis. SH3 proteins were titrated at increasing concentrations against fluorescent PRPs, which were kept at a constant concentration of 0.2 µM. GRB2-2^W193K, which is defective in the binding of PRPs such as RP1, was used as a negative control as previously described. […] The resulting data (Figure S6) allowed the evaluation of equilibrium dissociation constants (Kd) for 45 interactions between the SH3 domains and the PRPs (Figure 2B; Table S6).
(§3) Figure S6. Interactions of the SH3 domains with fluorescent PRPs measured by fluorescence polarization.
(§4) Fluorescent peptides (0.2 µM) were titrated with increasing concentrations of the corresponding SH3 domains.
(§5) GRB2-2W193K, defective in the binding of PRPs such as RP1, was used as a negative control as previously described. The x-axis represents SH3 domain concentrations as GST fusion proteins in µM, while the y-axis represents fluorescence polarization. The equilibrium dissociation constants (Kd) for the respective measurements were determined by fitting the titration curves to a quadratic ligand-binding equation (solid lines). All Kd values are […]
(§6) Error bars are derived from the fitting errors.
(§7) (1 picture or pasted object on this page, not shown here)

[2] = biological target: T2, ABL2 SH3 domain (aa 107-167) (Homo sapiens, UniProt P42684)
T2 construct: 107-167; GST (N); made in house; host or cells: Escherichia coli CodonPlus, Rosetta, BL21(DE3)
T2 sequence (P42684 107-167): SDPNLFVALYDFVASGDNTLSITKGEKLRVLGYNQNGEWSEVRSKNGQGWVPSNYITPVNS
Experimental: as §1, §2, §3, §4, §5, §6, §7

[3] = biological target: T3, ARHGAP12 SH3 domain (aa 12-74) (Homo sapiens, UniProt Q8IWW6)
T3 construct: 12-74; GST (N); made in house; host or cells: Escherichia coli CodonPlus, Rosetta, BL21(DE3)
T3 sequence (Q8IWW6 12-74): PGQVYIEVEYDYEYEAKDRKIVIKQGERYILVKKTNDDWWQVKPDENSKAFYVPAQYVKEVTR
Experimental: as §1, §2, §3, §4, §5, §6, §7

[4] = biological target: T4, ARHGEF30 (OBSCN) SH3 domain (aa 5600-5667) (Homo sapiens, UniProt Q5VST9)
T4 construct: 5600-5667; GST (N); made in house; host or cells: Escherichia coli CodonPlus, Rosetta, BL21(DE3)
T4 sequence (Q5VST9 5600-5667): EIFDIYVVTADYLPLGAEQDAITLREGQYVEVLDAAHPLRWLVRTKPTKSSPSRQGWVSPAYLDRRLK
Experimental: as §1, §2, §3, §4, §5, §6, §7

[5] = biological target: T5, BIN1 SH3 domain (aa 520-593) (Homo sapiens, UniProt O00499)
T5 construct: 520-593; GST (N); made in house; host or cells: Escherichia coli CodonPlus, Rosetta, BL21(DE3)
T5 sequence (O00499 520-593): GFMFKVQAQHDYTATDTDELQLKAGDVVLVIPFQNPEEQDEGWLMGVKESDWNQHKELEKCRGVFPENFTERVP
Experimental: as §1, §2, §3, §4, §5, §6, §7

[6] = biological target: T6, CRK-1 SH3 domain (aa 132-192) (Homo sapiens, UniProt P46108)
T6 construct: 132-192; GST (N); made in house; host or cells: Escherichia coli CodonPlus, Rosetta, BL21(DE3)
T6 sequence (P46108 132-192): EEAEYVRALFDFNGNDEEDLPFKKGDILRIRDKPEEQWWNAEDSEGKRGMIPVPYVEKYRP
Experimental: as §1, §2, §3, §4, §5, §6, §7

[7] = biological target: T7, DLG2 SH3 domain (aa 536-606) (Homo sapiens, UniProt Q15700)
T7 construct: 536-606; GST (N); made in house; host or cells: Escherichia coli CodonPlus, Rosetta, BL21(DE3)
T7 sequence (Q15700 536-606): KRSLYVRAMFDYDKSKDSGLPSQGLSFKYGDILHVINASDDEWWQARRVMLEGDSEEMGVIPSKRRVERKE
Experimental: as §1, §2, §3, §4, §5, §6, §7

[8] = biological target: T8, GRB2-1 SH3 domain (aa 1-58) (Homo sapiens, UniProt P62993)
T8 construct: 1-58; GST (N); made in house; host or cells: Escherichia coli CodonPlus, Rosetta, BL21(DE3)
T8 sequence (P62993 1-58): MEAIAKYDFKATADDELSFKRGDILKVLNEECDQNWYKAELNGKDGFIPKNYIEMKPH
Experimental: as §1, §2, §3, §4, §5, §6, §7

[9] = biological target: T9, GRB2-2 SH3 domain (aa 158-215) (Homo sapiens, UniProt P62993)
T9 construct: 158-215; GST (N); made in house; host or cells: Escherichia coli CodonPlus, Rosetta, BL21(DE3)
T9 sequence (P62993 158-215): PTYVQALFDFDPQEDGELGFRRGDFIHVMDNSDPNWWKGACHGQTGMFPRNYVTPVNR
Experimental: as §1, §2, §3, §4, §5, §6, §7

[10] = biological target: T10, ITSN1-1 SH3 domain (aa 740-806) (Homo sapiens, UniProt Q15811)
T10 construct: 740-806; GST (N); made in house; host or cells: Escherichia coli CodonPlus, Rosetta, BL21(DE3)
T10 sequence (Q15811 740-806): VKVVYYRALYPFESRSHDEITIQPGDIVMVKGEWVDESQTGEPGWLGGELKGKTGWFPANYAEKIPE
Experimental: as §1, §2, §3, §4, §5, §6, §7

[11] = biological target: T11, ITSN1-2 SH3 domain (aa 913-971) (Homo sapiens, UniProt Q15811)
T11 construct: 913-971; GST (N); made in house; host or cells: Escherichia coli CodonPlus, Rosetta, BL21(DE3)
T11 sequence (Q15811 913-971): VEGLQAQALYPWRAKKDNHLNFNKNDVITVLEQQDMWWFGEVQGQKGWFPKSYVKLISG
Experimental: as §1, §2, §3, §4, §5, §6, §7

[12] = biological target: T12, ITSN1-3 SH3 domain (aa 1002-1060) (Homo sapiens, UniProt Q15811)
T12 construct: 1002-1060; GST (N); made in house; host or cells: Escherichia coli CodonPlus, Rosetta, BL21(DE3)
T12 sequence (Q15811 1002-1060): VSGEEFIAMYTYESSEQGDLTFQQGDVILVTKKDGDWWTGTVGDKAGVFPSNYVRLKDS
Experimental: as §1, §2, §3, §4, §5, §6, §7

[13] = biological target: T13, SNX9 SH3 domain (aa 1-62) (Homo sapiens, UniProt Q9Y5X1)
T13 construct: 1-62; GST (N); made in house; host or cells: Escherichia coli CodonPlus, Rosetta, BL21(DE3)
T13 sequence (Q9Y5X1 1-62): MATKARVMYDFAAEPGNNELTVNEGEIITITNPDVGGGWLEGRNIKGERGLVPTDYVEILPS
Procedure, shortened: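 FP titration: 0.2 µM fluorescent PRP + GST-SH3 0–200 µM; 30 mM Tris/HCl pH 7.5, 5 mM MgCl2, 3 mM DTT, 25 °C. Ex 470/em 560 nm. Kd by quadratic binding-equation fit; errors from fitting.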

SMILES	pKd [1]	pKd [2]	pKd [3]	pKd [4]	pKd [5]	pKd [6]	pKd [7]	pKd [8]	pKd [9]	pKd [10]	pKd [11]	pKd [12]	pKd [13]
CC[C@H](C)[C@H](NC(=O)[C@H](C)NC(=O)[C@@H]1CCCN1C(=O)[C@@H]1CCCN1C(=O)[C@H](CO)NC(=O)[C@H](CC(=O)O)NC(=O)[C@@H](N)CC(C)C)C(=O)N1CCC[C@H]1C(=O)N1CCC[C@H]1C(=O)N[C@@H](CCCNC(=N)N)C(=O)N[C@@H](CCC(N)=O)C(=O)N1CCC[C@H]1C(=O)N[C@H](C(=O)N[C@@H](CO)C(=O)N[C@@H](CCCCN)C(=O)O)[C@@H](C)O [Peptide P4] (H-LDSPPAIPPRQPTSK-OH)	4.61	3.90	< 3.70	< 3.70	< 3.70	< 3.70	< 3.70	4.22	4.70	5.18	< 3.70	< 3.70	< 3.70
C[C@H](N)C(=O)N[C@@H](Cc1ccccc1)C(=O)N[C@@H](Cc1ccccc1)C(=O)N1CCC[C@H]1C(=O)N[C@@H](CC(N)=O)C(=O)N[C@@H](CO)C(=O)N1CCC[C@H]1C(=O)N[C@@H](CO)C(=O)N1CCC[C@H]1C(=O)N[C@@H](Cc1ccccc1)C(=O)N[C@H](C(=O)N1CCC[C@H]1C(=O)N1CCC[C@H]1C(=O)N1CCC[C@H]1C(=O)N1CCC[C@H]1C(=O)N[C@@H](CCC(N)=O)C(=O)N[C@H](C(=O)N1CCC[C@H]1C(=O)N[C@@H](CO)C(=O)N1CCC[C@H]1C(=O)N[C@@H](Cc1c[nH]cn1)C(=O)NCC(=O)N[C@H](C(=O)O)[C@@H](C)O)[C@@H](C)O)[C@@H](C)O [Peptide P7] (H-AFFPNSPSPFTPPPPQTPSPHGT-OH)	< 3.70	4.17	6.70 and > 6.30	5.05	4.92	4.74	4.23	< 3.70	< 3.70	< 3.70	< 3.70	< 3.70	< 3.70
CC(C)C[C@H](NC(=O)[C@H](Cc1c[nH]cn1)NC(=O)[C@H](CC(C)C)NC(=O)[C@@H]1CCCN1C(=O)[C@H](CO)NC(=O)[C@H](CO)NC(=O)[C@@H](N)CO)C(=O)N[C@@H](CCC(N)=O)C(=O)N1CCC[C@H]1C(=O)N1CCC[C@H]1C(=O)N1CCC[C@H]1C(=O)N[C@@H](CC(C)C)C(=O)NCC(=O)N[C@@H](CCCCN)C(=O)N[C@@H](CCCCN)C(=O)O [Peptide P6] (H-SSSPLHLQPPPLGKK-OH; N-terminus and C-terminus assumed)	< 3.70	< 3.70	< 3.70	< 3.70	< 3.70	< 3.70	< 3.70	< 3.70	< 3.70	< 3.70	< 3.70	< 3.70	< 3.70
CC(C)C[C@H](NC(=O)[C@@H]1CCCN1C(=O)[C@@H]1CCCN1C(=O)[C@H](CO)NC(=O)[C@@H]1CCCN1C(=O)[C@H](CC(C)C)NC(=O)[C@H](Cc1c[nH]cn1)NC(=O)[C@@H](N)CCCNC(=N)N)C(=O)N[C@H](C(=O)N[C@@H](CCC(N)=O)C(=O)O)[C@@H](C)O [Peptide P8] (H-RHLPSPPLTQ-OH; N-terminus and C-terminus assumed)	< 3.70	< 3.70	< 3.70	< 3.70	< 3.70	< 3.70	< 3.70	< 3.70	< 3.70	< 3.70	< 3.70	< 3.70	< 3.70
